From ChEMBL document CHEMBL1201862, “PubChem BioAssay data set” (2004)
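Values below derive from 48-hour exposures of cells grown in 96-well plates, with endpoints linearly interpolated between the two concentrations bracketing the appropriate inhibition level. GI50: concentration for 50% inhibition of growth.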 The source made the active and inactive calls. Rule as the data show it: active = GI50 up to about 1.1 µM and inactive = higher.

Assays:
Assay in all cases: growth of human tumour cells (NCI), 48 h
[1] = test system: HOP-62
[2] = test system: NCI-H23
[3] = test system: UO-31
[4] = test system: MDA-MB-435
[5] = test system: NCI-H226
[6] = test system: OVCAR-5
[7] = test system: SF-295
[8] = test system: NCI-H460
[9] = test system: 786-0
[10] = test system: SF-539
[11] = test system: SK-MEL-5
[12] = test system: COLO 205
[13] = test system: MOLT-4
[14] = test system: UACC-257
[15] = test system: BT-549
[16] = test system: ACHN
[17] = test system: SK-OV-3
[18] = test system: U-251
[19] = test system: MDA-N
[20] = test system: UACC-62

Row | SMILES | GI50 [1] | GI50 [2] | GI50 [3] | GI50 [4] | GI50 [5] | GI50 [6] | GI50 [7] | GI50 [8] | GI50 [9] | GI50 [10] | GI50 [11] | GI50 [12] | GI50 [13] | GI50 [14] | GI50 [15] | GI50 [16] | GI50 [17] | GI50 [18] | GI50 [19] | GI50 [20]
1 | O=[N+]([O-])c1ccc(NC(=S)N/N=C(\c2ccccc2)c2ccccn2)cc1 | 0.242 µM (active) | 2.18 µM (inactive) | 1.46 µM (inactive) | 1.74 µM (inactive) | 1.47 µM (inactive) | 1.88 µM (inactive) | 1.55 µM (inactive) | 4.85 µM (inactive) | 1.25 µM (inactive) | 1.74 µM (inactive) | 1.36 µM (inactive) | 0.312 µM (active) | < 0.0314 µM (active) | 1.6 µM (inactive) | 1.63 µM (inactive) | 1.16 µM (inactive) | 1.4 µM (inactive) | 1.36 µM (inactive) | 1.6 µM (inactive) | 1.24 µM (inactive)
2 | COC(=O)[C@]12CC[C@H]3CN(S(=O)(=O)c4ccc(C)cc4)[C@H]([C@H]31)[C@H](c1ccco1)N2S(=O)(=O)c1ccc(C)cc1 | 66.4 µM (inactive) | 48.1 µM (inactive) | 29.3 µM (inactive) | 22.9 µM (inactive) | 42.5 µM (inactive) | > 100 µM (inactive) | 35.6 µM (inactive) | 35.8 µM (inactive) | 59.7 µM (inactive) | > 100 µM (inactive) | 37.2 µM (inactive) | 20.5 µM (inactive) | 31.1 µM (inactive) | 28.6 µM (inactive) | 30.1 µM (inactive) | 39.7 µM (inactive) | > 100 µM (inactive) | 64.3 µM (inactive) | 24.7 µM (inactive) | 19.4 µM (inactive)
3 | O=C(O)C1(Cc2ccc3c(c2)CCC3)Cc2ccccc2C1 | 84.5 µM (inactive) | 67.6 µM (inactive) | 46.1 µM (inactive) | > 100 µM (inactive) | 91 µM (inactive) | > 100 µM (inactive) | 38.9 µM (inactive) | 52.1 µM (inactive) | > 100 µM (inactive) | > 100 µM (inactive) | > 100 µM (inactive) | 30.2 µM (inactive) | 71.8 µM (inactive) | > 100 µM (inactive) | 29.8 µM (inactive) | 53.7 µM (inactive) | 31 µM (inactive) | 65.8 µM (inactive) | > 100 µM (inactive) | 76.6 µM (inactive)
4 | COc1cc(OC)c2c(c1)OC(c1cccnc1)C(c1ccccc1)C2=O (stereo not given) | > 100 µM (inactive) | > 100 µM (inactive) | 35.8 µM (inactive) | 84.5 µM (inactive) | > 100 µM (inactive) | > 100 µM (inactive) | > 100 µM (inactive) | 34 µM (inactive) | > 100 µM (inactive) | > 100 µM (inactive) | > 100 µM (inactive) | > 100 µM (inactive) | > 100 µM (inactive) | > 100 µM (inactive) | > 100 µM (inactive) | > 100 µM (inactive) | > 100 µM (inactive) | > 100 µM (inactive) | 42.7 µM (inactive) | > 100 µM (inactive)
5 | Cc1nc2ccc(NCCN(C)C)c3c(=O)c4cc(O)ccc4n1c23 | 0.433 µM (active) | 0.318 µM (active) | 2.49 µM (inactive) | 1.82 µM (inactive) | 0.109 µM (active) | 1.42 µM (inactive) | 1.04 µM (active) | 0.0291 µM (active) | 0.228 µM (active) | 0.733 µM (active) | 1.73 µM (inactive) | 0.445 µM (active) | 0.0164 µM (active) | 3.56 µM (inactive) | 3.45 µM (inactive) | 0.103 µM (active) | 0.845 µM (active) | 0.352 µM (active) | 1.43 µM (inactive) | 1.25 µM (inactive)
6 | COc1ccc2c(c1OC)OCC(CN(C)C)C2=O (stereo not given) | > 51.8 µM (inactive) | 17.1 µM (inactive) | 18.2 µM (inactive) | 19.5 µM (inactive) | > 47.1 µM (inactive) | 19.1 µM (inactive) | > 100 µM (inactive) | > 44.6 µM (inactive) | 12.6 µM (inactive) | 20.4 µM (inactive) | 17.7 µM (inactive) | 8.07 µM (inactive) | 2.23 µM (inactive) | 16.7 µM (inactive) | 19.4 µM (inactive) | 17.7 µM (inactive) | > 43.1 µM (inactive) | 18.9 µM (inactive) | 18.2 µM (inactive) | 17.1 µM (inactive)
7 | C/C1=C\CC/C(C)=C/C=C(/C(C)C)CC/C(C(=O)O)=C/CC1 [CROTOCEMBRANEIC ACID] | 29.6 µM (inactive) | 36.5 µM (inactive) | 72.8 µM (inactive) | 44.4 µM (inactive) | 33 µM (inactive) | > 100 µM (inactive) | 26.7 µM (inactive) | 34.8 µM (inactive) | 55.7 µM (inactive) | 37.9 µM (inactive) | 36 µM (inactive) | 19.9 µM (inactive) | 28.3 µM (inactive) | 82.8 µM (inactive) | 61.5 µM (inactive) | 34.5 µM (inactive) | 35.5 µM (inactive) | 35.1 µM (inactive) | 59 µM (inactive) | 25.8 µM (inactive)
